Measurements taken from ChEMBL document CHEMBL3832083.

Experiment: clinical
Conditions: human, in vivo, po

Nc1nc2ccc(OC(F)(F)F)cc2s1 [RILUZOLE]
fraction unbound: 0.04
